Measured values published in publication PMC10004634 (PLOS ONE, 2023).
Read-outs that look alike come from different tables or passages of the source.

Tests used:
Test in all cases: biochemical
Set-up in all cases: KINOMEscan scanMAX competition binding, DNA-tagged kinases, qPCR read-out, percent control at 300 nM
CAMK1D = CAMK1D (Homo sapiens, UniProt Q8IU85)
AKT3 = AKT3 (Homo sapiens, UniProt Q9Y243)
[1] = target: T1, JAK1(JH2domain-pseudokinase) (Homo sapiens, UniProt P23458)
T1 construct: JH2domain-pseudokinase

CDK11 = target: T2, CDK11 (Homo sapiens, UniProt Q9BWU1)
T2 construct: gene CDK19

SRMS = SRMS (Homo sapiens, UniProt Q9H3Y6)
ULK1 = target: T3, ULK1 (Homo sapiens, UniProt O75385)
T3 sequence (O75385 1-1050): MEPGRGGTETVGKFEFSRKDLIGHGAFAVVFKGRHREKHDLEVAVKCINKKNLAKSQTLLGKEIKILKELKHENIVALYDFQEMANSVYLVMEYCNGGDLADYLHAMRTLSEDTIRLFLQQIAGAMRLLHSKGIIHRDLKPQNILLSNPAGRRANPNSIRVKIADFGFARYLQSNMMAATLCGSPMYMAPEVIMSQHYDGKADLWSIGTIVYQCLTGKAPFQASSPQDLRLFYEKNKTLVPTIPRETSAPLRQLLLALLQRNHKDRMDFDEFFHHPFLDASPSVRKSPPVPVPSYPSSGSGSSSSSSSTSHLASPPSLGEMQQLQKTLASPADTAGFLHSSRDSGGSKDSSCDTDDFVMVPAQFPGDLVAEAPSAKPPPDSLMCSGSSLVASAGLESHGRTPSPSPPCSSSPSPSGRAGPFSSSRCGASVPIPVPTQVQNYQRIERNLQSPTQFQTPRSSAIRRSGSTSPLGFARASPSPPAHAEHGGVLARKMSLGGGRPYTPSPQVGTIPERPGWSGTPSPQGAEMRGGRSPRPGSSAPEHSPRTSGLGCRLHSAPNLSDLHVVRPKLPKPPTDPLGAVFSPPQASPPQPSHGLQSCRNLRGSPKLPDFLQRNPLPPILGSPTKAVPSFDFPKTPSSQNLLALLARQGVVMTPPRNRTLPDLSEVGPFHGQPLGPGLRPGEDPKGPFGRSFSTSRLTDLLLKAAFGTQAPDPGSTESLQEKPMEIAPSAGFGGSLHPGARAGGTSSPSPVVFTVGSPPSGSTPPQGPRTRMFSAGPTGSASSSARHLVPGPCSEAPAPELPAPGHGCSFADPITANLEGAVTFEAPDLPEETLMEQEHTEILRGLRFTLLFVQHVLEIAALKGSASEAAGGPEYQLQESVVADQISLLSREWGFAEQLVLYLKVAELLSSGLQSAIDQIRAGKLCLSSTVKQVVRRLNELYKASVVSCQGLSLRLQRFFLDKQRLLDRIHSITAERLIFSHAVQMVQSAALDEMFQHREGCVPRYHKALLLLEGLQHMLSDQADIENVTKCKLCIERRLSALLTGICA

DMPK2 = target: T4, DMPK2 (Homo sapiens, UniProt Q6DT37)
T4 construct: gene CDC42BPG

TRKA = target: T5, TRKA (Homo sapiens, UniProt P04629)
T5 construct: gene NTRK1

BRSK1 = target: T6, BRSK1 (Homo sapiens, UniProt Q8TDC3)
T6 sequence (Q8TDC3 1-778): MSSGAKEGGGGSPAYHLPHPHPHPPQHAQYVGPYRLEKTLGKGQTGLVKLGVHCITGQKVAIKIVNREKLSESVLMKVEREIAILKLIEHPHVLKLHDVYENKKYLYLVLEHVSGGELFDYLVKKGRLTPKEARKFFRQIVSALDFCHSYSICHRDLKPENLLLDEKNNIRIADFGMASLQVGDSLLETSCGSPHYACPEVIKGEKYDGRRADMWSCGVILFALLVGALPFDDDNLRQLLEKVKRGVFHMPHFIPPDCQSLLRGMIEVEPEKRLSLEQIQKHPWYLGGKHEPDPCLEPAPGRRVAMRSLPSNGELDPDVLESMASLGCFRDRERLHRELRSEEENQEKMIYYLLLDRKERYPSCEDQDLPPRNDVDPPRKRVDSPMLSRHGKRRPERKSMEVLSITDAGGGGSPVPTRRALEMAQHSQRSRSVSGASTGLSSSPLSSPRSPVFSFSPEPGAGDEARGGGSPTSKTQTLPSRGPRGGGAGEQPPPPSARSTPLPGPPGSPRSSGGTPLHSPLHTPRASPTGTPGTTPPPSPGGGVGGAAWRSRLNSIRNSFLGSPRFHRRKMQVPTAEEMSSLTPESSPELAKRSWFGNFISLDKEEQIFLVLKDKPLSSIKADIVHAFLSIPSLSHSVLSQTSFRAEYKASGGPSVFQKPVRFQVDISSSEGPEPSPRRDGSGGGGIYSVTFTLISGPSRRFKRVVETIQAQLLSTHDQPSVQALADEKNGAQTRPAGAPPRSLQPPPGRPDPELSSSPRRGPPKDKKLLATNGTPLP

MST3 = target: T7, MST3 (Homo sapiens, UniProt Q9Y6E0)
T7 construct: gene STK24

[2] = read-out: Percent control / Tirabrutinib
[3] = read-out: Percent control / Zanubrutinib
[4] = read-out: Percent control / Acalabrutinib
[5] = read-out: Percent control / Ibrutinib

Chain of SRMS (Q9H3Y6 whole entry): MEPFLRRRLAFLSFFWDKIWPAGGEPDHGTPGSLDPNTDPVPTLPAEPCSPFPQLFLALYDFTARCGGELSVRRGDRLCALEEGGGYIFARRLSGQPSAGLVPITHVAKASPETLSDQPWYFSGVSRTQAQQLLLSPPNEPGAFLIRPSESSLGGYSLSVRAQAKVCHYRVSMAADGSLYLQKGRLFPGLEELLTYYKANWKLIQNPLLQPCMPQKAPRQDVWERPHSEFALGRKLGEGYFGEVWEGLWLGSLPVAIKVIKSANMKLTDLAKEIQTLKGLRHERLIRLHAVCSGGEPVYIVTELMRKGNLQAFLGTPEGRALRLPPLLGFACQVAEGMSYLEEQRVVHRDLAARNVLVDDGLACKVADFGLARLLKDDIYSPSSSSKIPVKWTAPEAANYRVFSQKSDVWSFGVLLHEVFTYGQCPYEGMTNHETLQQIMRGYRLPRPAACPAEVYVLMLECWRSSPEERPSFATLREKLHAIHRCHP
T1 sequence (P23458 whole entry): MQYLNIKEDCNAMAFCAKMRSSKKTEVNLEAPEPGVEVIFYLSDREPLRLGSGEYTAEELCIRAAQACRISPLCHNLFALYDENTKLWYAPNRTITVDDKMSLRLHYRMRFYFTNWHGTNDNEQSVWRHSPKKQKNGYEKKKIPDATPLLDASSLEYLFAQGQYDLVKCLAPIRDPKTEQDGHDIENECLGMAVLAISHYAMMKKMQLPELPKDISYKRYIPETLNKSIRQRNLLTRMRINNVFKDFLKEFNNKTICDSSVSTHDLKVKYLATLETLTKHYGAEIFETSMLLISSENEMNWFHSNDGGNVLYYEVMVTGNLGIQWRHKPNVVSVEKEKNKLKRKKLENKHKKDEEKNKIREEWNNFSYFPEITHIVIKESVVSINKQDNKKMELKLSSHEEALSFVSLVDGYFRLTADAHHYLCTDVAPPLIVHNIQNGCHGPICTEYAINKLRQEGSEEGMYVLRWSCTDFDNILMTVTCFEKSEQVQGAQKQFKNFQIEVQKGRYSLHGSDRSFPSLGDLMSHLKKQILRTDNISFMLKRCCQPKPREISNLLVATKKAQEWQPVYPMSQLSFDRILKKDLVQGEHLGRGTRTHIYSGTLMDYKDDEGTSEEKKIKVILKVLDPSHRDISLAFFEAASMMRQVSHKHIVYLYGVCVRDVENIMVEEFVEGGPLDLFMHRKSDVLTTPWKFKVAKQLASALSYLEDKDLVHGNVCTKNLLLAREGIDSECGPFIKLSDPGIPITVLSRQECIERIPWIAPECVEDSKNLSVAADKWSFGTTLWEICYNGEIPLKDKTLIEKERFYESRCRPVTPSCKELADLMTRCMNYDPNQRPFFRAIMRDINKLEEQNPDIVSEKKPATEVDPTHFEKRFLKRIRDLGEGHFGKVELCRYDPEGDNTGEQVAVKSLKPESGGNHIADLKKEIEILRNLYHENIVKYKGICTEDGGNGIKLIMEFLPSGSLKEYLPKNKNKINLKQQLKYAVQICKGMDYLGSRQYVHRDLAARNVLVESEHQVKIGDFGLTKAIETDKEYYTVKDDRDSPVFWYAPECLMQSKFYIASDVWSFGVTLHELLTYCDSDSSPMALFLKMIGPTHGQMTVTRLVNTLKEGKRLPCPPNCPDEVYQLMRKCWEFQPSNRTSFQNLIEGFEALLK
T7 sequence (Q9Y6E0 whole entry): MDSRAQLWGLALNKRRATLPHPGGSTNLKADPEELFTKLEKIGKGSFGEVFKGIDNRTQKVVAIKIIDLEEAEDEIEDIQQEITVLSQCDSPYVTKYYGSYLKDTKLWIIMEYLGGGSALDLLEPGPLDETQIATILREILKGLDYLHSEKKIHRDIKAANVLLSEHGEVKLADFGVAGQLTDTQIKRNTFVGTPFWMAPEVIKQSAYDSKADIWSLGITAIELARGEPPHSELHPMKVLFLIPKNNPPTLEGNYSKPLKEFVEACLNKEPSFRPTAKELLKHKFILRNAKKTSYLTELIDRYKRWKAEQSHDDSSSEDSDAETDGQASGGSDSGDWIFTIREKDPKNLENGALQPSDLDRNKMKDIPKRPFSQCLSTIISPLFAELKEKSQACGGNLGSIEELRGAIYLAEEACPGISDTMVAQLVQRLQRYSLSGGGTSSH
T5 sequence (P04629 whole entry): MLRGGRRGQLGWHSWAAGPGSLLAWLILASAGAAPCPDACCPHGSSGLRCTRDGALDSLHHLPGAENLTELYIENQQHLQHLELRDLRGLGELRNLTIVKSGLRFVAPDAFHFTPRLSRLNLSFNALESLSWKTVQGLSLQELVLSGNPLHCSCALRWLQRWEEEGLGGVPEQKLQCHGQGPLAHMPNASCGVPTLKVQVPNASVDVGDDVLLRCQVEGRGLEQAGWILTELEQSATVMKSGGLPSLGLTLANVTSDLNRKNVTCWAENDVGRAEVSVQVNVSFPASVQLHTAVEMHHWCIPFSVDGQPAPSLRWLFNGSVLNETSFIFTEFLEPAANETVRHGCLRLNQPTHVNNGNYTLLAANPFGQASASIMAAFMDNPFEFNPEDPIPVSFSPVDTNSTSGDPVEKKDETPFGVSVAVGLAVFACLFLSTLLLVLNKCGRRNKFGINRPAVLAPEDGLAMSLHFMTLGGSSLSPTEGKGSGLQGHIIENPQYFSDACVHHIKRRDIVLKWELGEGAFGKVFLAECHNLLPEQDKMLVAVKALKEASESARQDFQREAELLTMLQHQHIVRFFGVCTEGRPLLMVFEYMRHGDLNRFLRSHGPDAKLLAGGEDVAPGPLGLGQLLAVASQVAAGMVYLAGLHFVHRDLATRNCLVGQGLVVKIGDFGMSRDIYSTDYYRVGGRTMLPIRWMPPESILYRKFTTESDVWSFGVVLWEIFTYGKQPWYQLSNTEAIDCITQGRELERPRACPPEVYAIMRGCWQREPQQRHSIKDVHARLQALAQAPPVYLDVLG
Chain of AKT3 (Q9Y243 whole entry): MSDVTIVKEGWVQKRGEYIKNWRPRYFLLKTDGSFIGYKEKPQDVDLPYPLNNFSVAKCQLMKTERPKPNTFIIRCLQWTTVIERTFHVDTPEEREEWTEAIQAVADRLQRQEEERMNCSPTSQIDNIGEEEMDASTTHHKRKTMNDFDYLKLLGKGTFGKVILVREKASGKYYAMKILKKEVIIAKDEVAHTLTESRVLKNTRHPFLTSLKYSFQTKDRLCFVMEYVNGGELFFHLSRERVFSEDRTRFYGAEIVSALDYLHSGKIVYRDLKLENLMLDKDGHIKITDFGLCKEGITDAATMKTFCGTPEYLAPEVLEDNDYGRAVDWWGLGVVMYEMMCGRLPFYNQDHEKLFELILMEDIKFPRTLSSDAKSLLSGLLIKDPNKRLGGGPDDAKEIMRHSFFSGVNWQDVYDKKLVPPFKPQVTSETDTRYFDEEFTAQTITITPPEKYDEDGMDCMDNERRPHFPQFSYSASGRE
T4 sequence (Q6DT37 whole entry): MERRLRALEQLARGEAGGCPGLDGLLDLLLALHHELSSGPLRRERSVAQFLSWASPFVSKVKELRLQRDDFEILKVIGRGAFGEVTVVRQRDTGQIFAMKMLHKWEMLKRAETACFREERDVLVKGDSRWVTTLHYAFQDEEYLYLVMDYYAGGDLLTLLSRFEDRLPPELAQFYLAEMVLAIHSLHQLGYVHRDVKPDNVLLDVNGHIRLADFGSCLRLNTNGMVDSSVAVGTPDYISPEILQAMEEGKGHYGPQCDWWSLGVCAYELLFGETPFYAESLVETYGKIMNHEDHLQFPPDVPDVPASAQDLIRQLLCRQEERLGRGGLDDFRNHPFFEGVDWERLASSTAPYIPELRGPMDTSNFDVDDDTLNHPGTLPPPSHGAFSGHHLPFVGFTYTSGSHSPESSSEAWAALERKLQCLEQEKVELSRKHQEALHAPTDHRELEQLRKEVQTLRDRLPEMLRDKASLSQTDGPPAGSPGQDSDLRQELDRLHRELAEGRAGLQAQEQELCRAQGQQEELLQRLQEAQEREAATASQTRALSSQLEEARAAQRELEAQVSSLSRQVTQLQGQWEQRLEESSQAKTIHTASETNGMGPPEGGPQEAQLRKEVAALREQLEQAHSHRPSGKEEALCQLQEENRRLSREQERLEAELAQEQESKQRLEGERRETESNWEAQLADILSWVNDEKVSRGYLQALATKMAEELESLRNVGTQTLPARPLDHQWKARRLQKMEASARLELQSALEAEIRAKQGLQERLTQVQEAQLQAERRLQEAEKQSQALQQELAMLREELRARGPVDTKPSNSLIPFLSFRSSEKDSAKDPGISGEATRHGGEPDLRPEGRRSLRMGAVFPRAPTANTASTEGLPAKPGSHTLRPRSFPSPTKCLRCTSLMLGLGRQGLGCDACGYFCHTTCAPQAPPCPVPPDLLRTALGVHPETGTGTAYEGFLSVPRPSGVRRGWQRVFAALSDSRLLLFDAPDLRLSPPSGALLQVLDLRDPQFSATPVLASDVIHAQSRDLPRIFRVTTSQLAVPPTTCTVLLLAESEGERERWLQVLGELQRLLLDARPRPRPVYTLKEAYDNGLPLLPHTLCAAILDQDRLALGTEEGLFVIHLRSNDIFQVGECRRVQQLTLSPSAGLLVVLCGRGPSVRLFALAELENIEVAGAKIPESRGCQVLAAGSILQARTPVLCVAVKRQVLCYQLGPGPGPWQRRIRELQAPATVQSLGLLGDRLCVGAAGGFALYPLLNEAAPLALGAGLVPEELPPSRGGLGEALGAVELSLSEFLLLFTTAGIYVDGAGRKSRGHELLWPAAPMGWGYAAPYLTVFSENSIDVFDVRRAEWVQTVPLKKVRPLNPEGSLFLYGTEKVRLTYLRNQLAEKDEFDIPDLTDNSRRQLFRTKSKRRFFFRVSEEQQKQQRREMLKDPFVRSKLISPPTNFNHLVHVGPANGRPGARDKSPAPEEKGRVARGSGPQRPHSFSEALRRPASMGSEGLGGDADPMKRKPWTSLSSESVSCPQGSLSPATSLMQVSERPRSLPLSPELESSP

CC#CC(=O)N1CC[C@@H](n2c(=O)n(-c3ccc(Oc4ccccc4)cc3)c3c(N)ncnc32)C1 [Tirabrutinib]
remaining binding at 0.3 µM (CAMK1D; [2]): 99% | remaining binding at 0.3 µM (AKT3; [2]): 83% | remaining binding at 0.3 µM [1, 2]: 79% | remaining binding at 0.3 µM (CDK11; [2]): 93% | remaining binding at 0.3 µM (SRMS; [2]): 82% | remaining binding at 0.3 µM (ULK1; [2]): 74% | remaining binding at 0.3 µM (DMPK2; [2]): 87% | remaining binding at 0.3 µM (TRKA; [2]): 83%

C=CC(=O)N1CCC([C@@H]2CCNc3c(C(N)=O)c(-c4ccc(Oc5ccccc5)cc4)nn32)CC1 [Zanubrutinib]
remaining binding at 0.3 µM (CAMK1D; [3]): 81% | remaining binding at 0.3 µM (AKT3; [3]): 84% | remaining binding at 0.3 µM [1, 3]: 88% | remaining binding at 0.3 µM (CDK11; [3]): 83% | remaining binding at 0.3 µM (ULK1; [3]): 100% | remaining binding at 0.3 µM (BRSK1; [3]): 92% | remaining binding at 0.3 µM (MST3; [3]): 91% | remaining binding at 0.3 µM (TRKA; [3]): 99%

CC#CC(=O)N1CCC[C@H]1c1nc(-c2ccc(C(=O)Nc3ccccn3)cc2)c2c(N)nccn12 [Acalabrutinib]
remaining binding at 0.3 µM (CAMK1D; [4]): 71% | remaining binding at 0.3 µM (AKT3; [4]): 95% | remaining binding at 0.3 µM [1, 4]: 99% | remaining binding at 0.3 µM (CDK11; [4]): 74% | remaining binding at 0.3 µM (SRMS; [4]): 79% | remaining binding at 0.3 µM (ULK1; [4]): 95% | remaining binding at 0.3 µM (BRSK1; [4]): 92% | remaining binding at 0.3 µM (MST3; [4]): 94% | remaining binding at 0.3 µM (DMPK2; [4]): 91% | remaining binding at 0.3 µM (TRKA; [4]): 88%

C=CC(=O)N1CCC[C@@H](n2nc(-c3ccc(Oc4ccccc4)cc3)c3c(N)ncnc32)C1 [Ibrutinib]
remaining binding at 0.3 µM (CAMK1D; [5]): 97% | remaining binding at 0.3 µM [1, 5]: 80% | remaining binding at 0.3 µM (CDK11; [5]): 81% | remaining binding at 0.3 µM (SRMS; [5]): 0.3% | remaining binding at 0.3 µM (ULK1; [5]): 85% | remaining binding at 0.3 µM (BRSK1; [5]): 72% | remaining binding at 0.3 µM (MST3; [5]): 90% | remaining binding at 0.3 µM (DMPK2; [5]): 75% | remaining binding at 0.3 µM (TRKA; [5]): 82%
